What all share (type): physicochemical
A short description of data set [1]: Solubility determination in a variety of solvents. How it is done: The solubility of the compound of Formula I in a variety of solvents was measured according to routine methods at 23° C. and 50° C.
A short description of data set [2]: Polymorph screen by reslurry at 23° C. and 50° C. The settings on record: slurrying in a variety of different solvents at 23° C. and 50° C. An excerpt: Thermogravimetric analysis (TGA) and differential scanning calorimetry (DSC) data of products of various re-slurries are compared in Tables B and C below together with TGA/DSC data from the crystal form of the invention prepared according to Example 1. TGA/DSC data was obtained as described in Example 3. While DSC endotherms and TGA weight losses slightly differ between experiments, the variation is expected for HCl loss and decomposition of the sample. Powder X-ray diffraction data (see below Examples) of samples from each of the slurries were consistent with the diffraction pattern of FIG. 1 and Table 1.

Data set [3] in a line: Reslurry experiments, 12 days at RT, XRD while wet. The settings on record: ethanol, IPA, ethyl acetate, acetone, THF, acetonitrile, toluene, iso-propyl acetate, water, days 6 and 12. On the procedure: 4-cyano-N-{(2R)-2-[4-(2,3-dihydro-benzo[1,4]dioxin-5-yl)-piperazin-1-yl]-propyl}-N-pyridin-2-yl-benzamide hydrochloride was reslurried in about 1-2 ml of ethanol, IPA, ethyl acetate, acetone, THF, acetonitrile, toluene, iso-propyl acetate, and water. The suspensions were stirred in 5 ml vials for 12 days at RT. The suspension samples were withdrawn at days 6 and 12, filtered, and analyzed via XRD while wet.

These results are taken from US20070027162A1, “Crystalline and amorphous 4-cyano-N-{(2R)-2-[4-(2,3-dihydro-benzo[1,4]dioxin-5-yl)-piperazin -1-yl]-propyl}-N-pyridin-2-yl-benzamide hydrochloride” (Wyeth, priority 2005, published 2007).

Read-outs that look alike come from different tables or passages of the source.

For orientation: solubility means the dissolved amount per volume that the medium holds. Take `C[C@H](CN(C(=O)c1ccc(C#N)cc1)c1ccccn1)N1CCN(c2cccc3c2OCCO3)CC1.Cl` [Formula I, 4-cyano-N-{(2R)-2-[4-(2,3-dihydro-benzo[1,4]dioxin-5-yl)-piperazin-1-yl]-propyl}-N-pyridin-2-yl-benzamide hydrochloride]: the solubility in data set [1] (organic solvent or mixture, solvent 2-Propanol, 23° C., read-out: Solubility at 23° C.) came to 2 mg/mL; in data set [1] (organic solvent or mixture, solvent 2-Propanol, 50° C., read-out: Solubility at 50° C.) it was 6 mg/mL; in data set [1] (organic solvent or mixture, solvent Acetone, 23° C., read-out: Solubility at 23° C.) it was 6 mg/mL; in data set [1] (organic solvent or mixture, solvent Acetone, 50° C., read-out: Solubility at 50° C.), 9 mg/mL; in data set [1] (organic solvent or mixture, solvent CH3CN, 23° C., read-out: Solubility at 23° C.), 18 mg/mL; in data set [1] (organic solvent or mixture, solvent CH3CN, 50° C., read-out: Solubility at 50° C.) it was 37 mg/mL. For the same molecule, the solubility in data set [1] (organic solvent or mixture, solvent DMSO, 23° C., read-out: Solubility at 23° C.) worked out at 246 mg/mL; in data set [1] (organic solvent or mixture, solvent DMSO, 50° C., read-out: Solubility at 50° C.), 337 mg/mL; in data set [1] (organic solvent or mixture, solvent EtOH, 23° C., read-out: Solubility at 23° C.) it was 19 mg/mL; in data set [1] (organic solvent or mixture, solvent EtOH, 50° C., read-out: Solubility at 50° C.), 40 mg/mL; in data set [1] (organic solvent or mixture, solvent Ethyl acetate, 23° C., read-out: Solubility at 23° C.), 16 mg/mL; in data set [1] (organic solvent or mixture, solvent Ethyl acetate, 50° C., read-out: Solubility at 50° C.) it was 24 mg/mL. In addition, the solubility in data set [1] (organic solvent or mixture, solvent Heptane, 23° C., read-out: Solubility at 23° C.) worked out at 1 mg/mL; in data set [1] (organic solvent or mixture, solvent Heptane, 50° C., read-out: Solubility at 50° C.) it was 1 mg/mL; in data set [1] (organic solvent or mixture, solvent MeOH, 23° C., read-out: Solubility at 23° C.) it was 378 mg/mL; in data set [1] (organic solvent or mixture, solvent MeOH, 50° C., read-out: Solubility at 50° C.), 989 mg/mL; in data set [1] (organic solvent or mixture, solvent THF, 23° C., read-out: Solubility at 23° C.) it was 4 mg/mL; in data set [1] (organic solvent or mixture, solvent THF, 50° C., read-out: Solubility at 50° C.) it was 5 mg/mL. Also, the solubility was 8 mg/mL in data set [1] (organic solvent or mixture, solvent Toluene, 23° C., read-out: Solubility at 23° C.); 14 mg/mL in data set [1] (organic solvent or mixture, solvent Toluene, 50° C., read-out: Solubility at 50° C.); 1 mg/mL in data set [1] (organic solvent or mixture, solvent t-Butylmethyl ether (t-BME), 50° C., read-out: Solubility at 50° C.); 49 mg/mL in data set [1] (solvent Water, 23° C., read-out: Solubility at 23° C.); over 100 mg/mL in data set [1] (solvent Water, 50° C., read-out: Solubility at 50° C.). Besides, the “Solubility in water (qualitative)” value in data set [1] (water, remark explaining oiling out on cooling) was “very high solubility”.
Take `C[C@H](CN(C(=O)c1ccc(C#N)cc1)c1ccccn1)N1CCN(c2cccc3c2OCCO3)CC1.Cl` [Form A, 4-cyano-N-{(2R)-2-[4-(2,3-dihydro-benzo[1,4]dioxin-5-yl)-piperazin-1-yl]-propyl}-N-pyridin-2-yl-benzamide hydrochloride]: the “Stability of crystal form upon slurrying” value in data set [2] is listed as “remained stable”. Besides, in data set [3], the “Form transformation on reslurry (XRD)” value is on record as “No transformation was noticed”.
